These results are taken from patent US20190152946A1, “Novel Compounds” (GlaxoSmithKline Intellectual Property Development Limited, priority 2016, published 2019).

Structures are written as SMILES.

One test has as its target T1, RPS6KA1 (Homo sapiens, UniProt Q15418).
T1 construct: endogenous in cells; host or cells: THP-1
Put plainly: Expression proteomics in THP-1 cells, RPS6KA1 level. Particulars: RPS6KA1 protein log2 fold change, 24 h, 1.0 μM. The format is cell-based. The procedure:
(§1) THP-1 cells were seeded at a concentration of 3×10^6 cells in T175 flasks with 60 mL growth medium (RPM11640+10% FBS). […] of a 10× compound solution prepared in growth medium (DMSO), IAP PROTAC) was added and the cells were treated for the indicated time points (6 or 24 h) at 37° C., 5% CO2. For harvesting the cells were collected into falcon tubes on ice, centrifuged and washed twice in cold PBS (Life technologies). After the last washing step the supernatant was removed and the pellets were snap-frozen in liquid N2 and stored at −80° C. and lysed in 2% SDS for 3 min at 95° C. in a thermomixer (Thermo Fisher Scientific), followed by digestion of DNA with Benzonase at 37° C. for 1.5 h. Lysate was cleared by centrifugation an protein concentration in supernatant was determined by BCA assay.
(§2) Leukemia 25, 89-100 (2011).
(§3) Samples were dried in vacuo and resuspended in 0.05% trifluoroacetic acid in water. […]
(§4) Reporter ion intensities were read from raw data and multiplied with ion accumulation times (the unit is milliseconds) so as to yield a measure proportional to the number of ions;
(§5) Nat Biotech 29, 255-265 (2011). this measure is referred to as ion area Savitski, M. M. et al. Delayed Fragmentation and Optimized Isolation Width Settings for Improvement of Protein Identification and Accuracy of Isobaric Mass Tag Quantification on Orbitrap-Type Mass Spectrometers. […]

For another test, the target named is T2, GAK (Homo sapiens, UniProt O14976).
T2 construct: endogenous in cells; host or cells: THP-1
T2 sequence (O14976 1-1311): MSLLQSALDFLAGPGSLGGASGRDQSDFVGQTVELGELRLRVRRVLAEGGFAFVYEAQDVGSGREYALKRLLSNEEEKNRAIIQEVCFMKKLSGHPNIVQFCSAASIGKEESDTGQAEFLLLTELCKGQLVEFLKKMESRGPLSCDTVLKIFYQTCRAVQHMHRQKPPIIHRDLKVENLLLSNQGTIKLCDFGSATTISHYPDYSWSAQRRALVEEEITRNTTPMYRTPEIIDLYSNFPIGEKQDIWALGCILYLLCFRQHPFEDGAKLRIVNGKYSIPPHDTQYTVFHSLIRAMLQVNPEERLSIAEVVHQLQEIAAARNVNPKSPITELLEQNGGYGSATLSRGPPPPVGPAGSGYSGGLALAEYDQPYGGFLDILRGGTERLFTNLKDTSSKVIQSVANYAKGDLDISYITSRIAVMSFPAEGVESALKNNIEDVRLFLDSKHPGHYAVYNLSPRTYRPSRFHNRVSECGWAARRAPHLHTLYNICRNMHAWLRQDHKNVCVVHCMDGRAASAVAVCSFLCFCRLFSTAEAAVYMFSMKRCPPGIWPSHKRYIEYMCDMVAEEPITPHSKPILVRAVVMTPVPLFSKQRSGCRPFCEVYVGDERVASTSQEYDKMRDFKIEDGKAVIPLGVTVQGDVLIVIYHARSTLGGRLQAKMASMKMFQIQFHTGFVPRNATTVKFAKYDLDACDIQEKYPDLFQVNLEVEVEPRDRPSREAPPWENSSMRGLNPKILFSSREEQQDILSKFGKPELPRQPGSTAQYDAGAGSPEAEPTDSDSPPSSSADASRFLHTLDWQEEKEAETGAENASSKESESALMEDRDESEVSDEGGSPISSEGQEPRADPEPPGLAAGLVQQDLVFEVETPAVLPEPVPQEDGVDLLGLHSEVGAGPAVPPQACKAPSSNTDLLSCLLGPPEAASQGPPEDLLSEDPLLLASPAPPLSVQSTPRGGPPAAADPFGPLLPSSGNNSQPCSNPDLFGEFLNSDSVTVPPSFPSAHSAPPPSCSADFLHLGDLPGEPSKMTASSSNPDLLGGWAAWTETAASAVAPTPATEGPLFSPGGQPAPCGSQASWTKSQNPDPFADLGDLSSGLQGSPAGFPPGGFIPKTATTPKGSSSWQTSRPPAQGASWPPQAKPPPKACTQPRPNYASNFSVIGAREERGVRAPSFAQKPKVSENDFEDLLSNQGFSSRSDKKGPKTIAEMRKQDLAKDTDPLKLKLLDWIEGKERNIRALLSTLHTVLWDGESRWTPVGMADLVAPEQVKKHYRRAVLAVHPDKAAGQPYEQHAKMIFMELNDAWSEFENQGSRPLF
The experiment in a line: Expression proteomics in THP-1 cells, GAK level. Type of test: cell-based. Particulars: GAK protein log2 fold change, 24 h, 1.0 μM. As for the experimental part:
as §1, §2, §3, §4, §5

T1 sequence (Q15418 whole entry): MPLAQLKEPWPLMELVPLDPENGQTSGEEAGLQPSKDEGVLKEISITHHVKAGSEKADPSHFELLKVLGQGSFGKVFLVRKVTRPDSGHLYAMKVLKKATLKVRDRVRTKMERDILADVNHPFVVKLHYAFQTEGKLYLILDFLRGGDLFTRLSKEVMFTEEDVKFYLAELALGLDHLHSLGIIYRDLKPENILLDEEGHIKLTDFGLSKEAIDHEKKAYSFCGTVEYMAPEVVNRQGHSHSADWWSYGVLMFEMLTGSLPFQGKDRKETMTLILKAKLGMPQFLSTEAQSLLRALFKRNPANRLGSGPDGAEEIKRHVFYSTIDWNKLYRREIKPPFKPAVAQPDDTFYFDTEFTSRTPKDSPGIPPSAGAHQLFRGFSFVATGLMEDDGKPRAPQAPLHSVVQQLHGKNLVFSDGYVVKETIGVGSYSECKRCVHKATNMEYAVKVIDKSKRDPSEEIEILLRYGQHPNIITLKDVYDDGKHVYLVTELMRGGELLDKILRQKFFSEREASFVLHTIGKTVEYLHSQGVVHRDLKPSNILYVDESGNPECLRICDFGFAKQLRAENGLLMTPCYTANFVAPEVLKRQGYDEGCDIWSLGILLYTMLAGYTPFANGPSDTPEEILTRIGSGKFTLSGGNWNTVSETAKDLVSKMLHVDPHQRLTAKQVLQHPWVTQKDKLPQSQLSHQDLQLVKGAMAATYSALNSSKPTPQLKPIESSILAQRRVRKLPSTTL

For `CNC(=O)c1ccccc1Nc1nc(Nc2ccc(N3CCN(CCOCCOCCOCCOc4ccc5c(c4)CN(C(=O)[C@@H](NC(=O)[C@H](C)NC)C(C)(C)C)[C@H](C(=O)N[C@@H]4CCCc6ccccc64)C5)CC3)cc2)ncc1Cl` [IAP, (S)-7-(2-(2-(2-(2-(4-(4-((5-Chloro-4-((2-(methylcarbamoyl)phenyl)amino)pyrimidin-2-yl)amino)phenyl)piperazin-1-yl)ethoxy)ethoxy)ethoxy)ethoxy)-2-((S)-3,3-dimethyl-2-((S)-2-(methylamino)propanamido)butanoyl)-N-((R)-1,2,3,4-tetrahydronaphthalen-1-yl)-1,2,3,4-tetrahydroisoquinoline-3-carboxamide], the “log2fc_IAP_24 h_1.0 μM_n1” value on RPS6KA1 (replicate n1) is −1.21; at GAK (replicate n1) it was −2.02. Also, the “log2fc_IAP_24 h_1.0 μM_n2” value at RPS6KA1 (replicate n2) is reported as −1.24; at GAK (replicate n2), −2.39.
